Data: patent US20180292376A1, “DIFFUSION CELL TESTING METHODS CONTAINING BIPHASIC RECEPTOR FLUIDS” (BUFFERAD Illinois Inc. d/b/a Zyleris PharmaTech, Inc., priority 2017, published 2018)

Legend:
[1] = general statement, no test described; cited from earlier work
[2] = In vitro release testing (IVRT), static vertical diffusion cell, synthetic membrane, UV-VIS analysis; assay type: physicochemical; conditions: petrolatum ointment with 0.5% loteprednol etabonate and 0.3% tobramycin sulfate; 1-octanol:1-hexanol:water 25:25:50 v:v:v
Procedure: In Vitro Release Testing Method.
Release of pharmaceutically active compounds from semi-solid dosage forms was evaluated in an in vitro model of static vertical diffusion cell using a synthetic membrane model. […] The samples were analyzed using a UV-VIS spectrometer. […]
Test time points: 0, 2, 4, 6, 8, and 10 hours. Each test was conducted in four replicates (N=4). Square root of test time points: 0, 1.41, 2.00, 2.45, 2.83, and 3.16.
Membrane: Polypropylene (pore size: 0.45 micron).
Static vertical diffusion cell parameters: Area of the membrane diffusion area: 0.95 square centimeters.
Dosing level: infinite dose at about 3.0 milliliter of the semi-solid dosage form.
Static vertical diffusion cell consists of a donor and receptor compartment separated by a synthetic membrane. The dosing compartment was for the dosed semi-solid dosage form. […] Before dosing, the diffusion cell was pre-incubated at 32° C. for about 20 to 45 minutes. The t=0 samples were taken after the incubation period prior to dosing.
During the experiment, the receptor fluid was in intimate contact with the membrane through a mixing mechanism, such as, e.g., magnetic stirring bar, or orbit shaker, and maintained at 32° C. using a heating mechanism, such as, e.g., dry heat block, or circulating water bath. At each time point, entire content of the receptor fluid was collected and replaced with a fresh batch pre-incubated at 32° C.
An ointment dosage form was prepared as an example of the semi-solid dosage form. Petrolatum was heated to about 50 to 70° C. while mixing. Xylene Cyanol was added to the heated petrolatum while heating and mixing. The mixture was mixed until uniform. Then, the mixture was slowly cooled to room temperature while mixing to yield the ointment formulation.

| Molecule | solubility in water [1] | phase of the biphasic receptor fluid in which the released compound is solubilized [2] |
| --- | --- | --- |
| Tobramycin sulfate | freely soluble |  |
| CCOC(=O)O[C@]1(C(=O)OCCl)CC[C@H]2[C@@H]3CCC4=CC(=O)C=C[C@]4(C)[C@H]3[C@@H](O)C[C@@]21C [loteprednol etabonate, Loteprednol etabonate] |  | mostly solubilized in the organic 1-octanol/1-hexanol phase |
